# Measured values as given in the supplement of paper PMC10307832.
# How the values were obtained:
# Test in all cases: relative viability (nuclei count vs DMSO), 5 days (fraction); higher = more cells survive
# [1] = compound: CC(C)N(CCCNC(=O)Nc1ccc(C(C)(C)C)cc1)C[C@H]1O[C@@H](n2ccc3c(N)ncnc32)[C@H](O)[C@@H]1O + N=C(N)NC(=N)NCCc1ccccc1 [Phenformin] (partner 250 µM)
# Method in brief: (§1)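 Lung cancer cell lines, seeded in 1536-well plates, were treated the following day by pin tool with a single drug or with five library-drug doses (not always all listed) in √10 steps on top of a fixed anchor-drug dose. Cells were fixed and nuclei stained in one step after 5 days, and nuclei were counted. Relative viability is the nuclei count for treated wells divided by that for vehicle wells, reported as medians of duplicate plates.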
# [2] = compound: CC(C)N(CCCNC(=O)Nc1ccc(C(C)(C)C)cc1)C[C@H]1O[C@@H](n2ccc3c(N)ncnc32)[C@H](O)[C@@H]1O + CC(=O)c1c(C)c2cnc(Nc3ccc(N4CCNCC4)cn3)nc2n(C2CCCC2)c1=O [Palbociclib] (partner 0.5 µM)
# Method in brief: as §1
# [3] = compound: CC(C)N(CCCNC(=O)Nc1ccc(C(C)(C)C)cc1)C[C@H]1O[C@@H](n2ccc3c(N)ncnc32)[C@H](O)[C@@H]1O + CCNC(=O)c1noc(-c2cc(C(C)C)c(O)cc2O)c1-c1ccc(CN2CCOCC2)cc1 [Luminespib] (partner 0.01 µM)
# Method in brief: as §1
# Shikonin + Lapatinib = compound: CC(C)=CC[C@@H](O)C1=CC(=O)c2c(O)ccc(O)c2C1=O [Shikonin] + CS(=O)(=O)CCNCc1ccc(-c2ccc3ncnc(Nc4ccc(OCc5cccc(F)c5)c(Cl)c4)c3c2)o1 [Lapatinib] (partner 2 µM)
# Method in brief: as §1
Cell Line,relative viability ([1]; first compound 0.08 µM),relative viability ([1]; first compound 0.253 µM),relative viability ([1]; first compound 0.8 µM),relative viability ([1]; first compound 2.53 µM),relative viability ([1]; first compound 8 µM),relative viability ([2]; first compound 0.08 µM),relative viability ([2]; first compound 0.253 µM),relative viability ([2]; first compound 0.8 µM),relative viability ([2]; first compound 2.53 µM),relative viability ([2]; first compound 8 µM),relative viability ([3]; first compound 0.08 µM),relative viability ([3]; first compound 0.253 µM),relative viability ([3]; first compound 0.8 µM),relative viability ([3]; first compound 2.53 µM),relative viability ([3]; first compound 8 µM),relative viability (Shikonin + Lapatinib; first compound 0.01 µM),relative viability (Shikonin + Lapatinib; first compound 0.1 µM),relative viability (Shikonin + Lapatinib; first compound 0.3162 µM),relative viability (Shikonin + Lapatinib; first compound 1 µM)
COR-L23,0.467,0.418,0.434,0.426,0.418,0.302,0.296,0.265,0.34,0.304,0.683,0.757,0.755,0.739,0.545,1.03,1.07,1.13,1.05
PC-14,0.637,0.544,0.556,0.454,0.532,0.467,0.439,0.586,0.444,0.496,0.109,0.24,0.213,0.175,0.181,0.334,0.342,0.329,0.326
NCI-H2126,0.523,0.529,0.52,0.534,0.496,0.358,0.366,0.355,0.378,0.371,0.847,0.814,0.941,0.88,0.925,0.779,0.795,0.81,0.824
BEN,0.254,0.258,0.265,0.246,0.287,0.446,0.509,0.453,0.503,0.445,0.347,0.461,0.282,0.442,0.303,0.654,0.897,0.776,0.768
EKVX,0.229,0.241,0.223,0.228,0.202,0.418,0.346,0.41,0.433,0.371,0.758,0.847,0.838,0.909,0.846,0.18,0.202,0.214,0.19
LXF-289,0.518,0.556,0.541,0.539,0.478,0.705,0.591,0.6,0.656,0.652,0.731,0.679,0.65,0.669,0.71,0.959,1,0.906,0.945
ABC-1,0.235,0.246,–,0.266,0.233,0.665,0.868,–,0.763,0.655,0.676,0.802,–,0.635,0.583,1.5,1.28,1.27,1.2
NCI-H727,0.554,0.461,0.46,0.639,0.412,0.694,0.578,0.769,0.82,0.62,0.372,0.453,0.445,0.232,0.471,0.923,0.96,0.745,0.604
NCI-H1650,0.311,0.424,–,0.429,0.473,0.38,0.431,0.131,0.335,0.396,0.207,0.218,–,0.208,0.226,0.758,0.819,0.684,0.757
NCI-H2087,0.38,0.519,0.445,0.55,0.351,0.29,0.235,0.276,0.203,0.269,0.211,0.198,0.276,0.16,0.151,1.03,1.38,1.15,0.954
NCI-H1793,0.396,–,0.336,0.371,0.316,0.295,–,0.292,0.38,0.303,0.18,–,0.292,0.171,0.203,0.637,0.786,0.742,0.648
LC-2-ad,0.587,0.546,0.526,0.6,0.565,0.496,0.463,0.495,0.51,0.484,0.935,0.973,1.07,0.893,1.03,0.798,1.38,1.04,0.965
COR-L 105,0.393,0.503,0.583,0.394,0.473,0.402,0.397,0.414,0.434,0.378,0.705,0.811,0.601,0.827,0.736,0.339,0.346,0.318,0.36
NCI-H1355,0.441,0.444,0.387,0.48,0.432,0.379,0.427,0.363,0.386,0.392,0.763,0.614,0.679,0.609,0.665,1.07,1.05,1.07,1.05
H3255,0.375,0.365,0.371,0.416,0.372,0.328,0.33,0.308,0.299,0.316,0.875,0.892,0.876,0.838,0.837,0.206,0.258,0.215,0.271
NCI-H2009,0.489,0.496,0.475,0.474,0.426,0.148,0.198,0.184,0.174,0.255,0.977,0.861,1.08,1.02,0.884,1.02,0.894,0.923,0.498
NCI-H1734,0.38,0.331,0.398,0.4,0.397,0.328,0.385,0.353,0.192,0.365,0.218,0.19,0.209,0.188,0.23,1.17,1.25,1.02,1.09

Cell Line,relative viability ([1]; first compound 0.08 µM),relative viability ([1]; first compound 0.253 µM),relative viability ([1]; first compound 0.8 µM),relative viability ([1]; first compound 2.53 µM),relative viability ([1]; first compound 8 µM),relative viability ([2]; first compound 0.08 µM),relative viability ([2]; first compound 0.253 µM),relative viability ([2]; first compound 0.8 µM),relative viability ([2]; first compound 2.53 µM),relative viability ([2]; first compound 8 µM),relative viability ([3]; first compound 0.08 µM),relative viability ([3]; first compound 0.253 µM),relative viability ([3]; first compound 0.8 µM),relative viability ([3]; first compound 2.53 µM),relative viability ([3]; first compound 8 µM),relative viability (Shikonin + Lapatinib; first compound 0.01 µM),relative viability (Shikonin + Lapatinib; first compound 0.1 µM),relative viability (Shikonin + Lapatinib; first compound 0.3162 µM),relative viability (Shikonin + Lapatinib; first compound 1 µM)
HOP-62,0.704,0.69,0.638,0.566,0.545,0.46,0.37,0.356,0.361,0.371,0.94,0.928,0.817,0.863,0.9,1.04,1.13,0.908,1.03
LOU-NH91,0.685,0.712,0.441,0.65,0.671,0.538,0.503,–,0.53,0.611,0.381,0.328,0.283,0.333,0.368,0.802,0.839,0.811,0.823
NCI-H23,0.771,0.806,0.791,0.843,0.746,0.517,–,0.506,0.48,0.446,0.224,0.23,0.199,0.233,0.21,1.2,1.14,1.13,1.03
RERF-LC-KJ,0.384,0.378,0.422,0.386,0.395,1.01,1.07,1.18,1.17,1.07,1.2,1.22,1.33,1.18,1.19,0.972,0.939,0.83,0.941
NCI-H1437,0.278,0.344,0.276,0.294,0.309,0.299,0.289,0.288,0.275,0.307,1.07,1.02,1.14,1.15,1.05,0.846,0.78,0.884,0.848
NCI-H1666,0.546,0.594,0.543,0.586,0.542,0.64,0.634,0.659,0.65,0.656,0.963,0.987,1.07,0.999,0.941,0.585,0.779,0.657,0.853
NCI-H1651,0.34,0.302,0.295,0.288,0.35,0.497,0.485,0.49,0.515,0.518,0.805,0.903,0.785,0.765,0.722,0.714,0.925,0.919,0.844
NCI-H1755,0.62,0.609,0.614,0.632,0.554,0.437,0.435,0.45,0.484,0.498,0.553,0.53,0.367,0.43,0.349,1.13,1.27,1.12,1.09
NCI-H838,0.487,0.394,0.551,0.551,0.51,0.217,0.178,0.182,0.247,0.251,0.366,0.273,0.307,0.331,0.286,1.02,1.03,0.979,0.996
HARA,0.458,0.413,0.388,0.425,0.363,0.249,0.223,0.311,0.208,0.26,0.682,0.626,0.731,0.536,0.587,0.888,0.903,0.853,0.77
NCI-H650,0.433,0.456,0.514,0.417,0.411,0.349,0.339,0.323,0.319,0.348,0.665,0.803,0.666,0.757,0.774,1.01,–,0.947,1.16
NCI-H2347,0.536,0.404,0.369,0.488,0.254,0.423,0.44,0.407,0.553,0.404,0.578,0.321,0.245,0.371,0.555,0.981,1.01,1.08,0.913
LCLC-97TM1,0.424,0.487,0.548,0.373,0.43,0.195,0.247,0.218,0.236,0.252,0.699,0.647,0.705,0.666,0.707,1.28,0.998,1.09,0.921
EPLC-272H,0.286,0.271,0.32,0.296,0.298,0.365,0.342,0.366,0.36,0.398,0.0863,0.265,0.268,0.46,0.232,0.869,1.2,1.08,1.22
NCI-H1915,0.362,0.388,0.378,0.388,0.353,0.517,0.543,0.517,0.533,0.525,0.757,0.819,0.676,0.789,0.77,1.01,1.18,1,1.09
NCI-H3122,0.39,0.384,0.367,0.366,0.358,0.204,0.162,0.161,0.198,0.197,0.0976,0.0883,0.117,0.0934,0.102,0.973,1.13,1,1.04
NCI-H2170,0.445,0.441,0.416,0.445,0.396,0.407,0.399,0.372,0.381,0.351,0.793,0.762,0.718,0.661,0.629,0.257,0.271,0.276,0.266
